Patent US8133849B2, “Herbicidal compounds” (Syngenta Limited, priority 2007, dated 2012)

Assays:
Experiment in all cases: Example B2 herbicidal action, post-emergence, pots in glasshouse, damage score 0-10
Type in all cases: in vivo
Details in all cases: application post-emergence, rate 1000 g/ha, evaluated after 13 days
Amaranthus retroflexus = test system: Amaranthus retroflexus
Summary of the method: (§1)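 Seedlings grown 8 days in a controlled glasshouse received a foliar spray of the compound formulated in 50:50 acetone/water plus 0.5% Tween 20; plant damage was assessed 13 days afterward.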

Echinochloa crus-galli = test system: Echinochloa crus-galli
Summary of the method: as §1

Ipomea hederaceae = test system: Ipomea hederaceae
Summary of the method: as §1

Setaria faberi = test system: Setaria faberi
Summary of the method: as §1

Solanum nigrum = test system: Solanum nigrum
Summary of the method: as §1

| SMILES | AMARE damage score (10=total damage to plant; 0=no damage to plant) (Amaranthus retroflexus) | ECHCG damage score (10=total damage to plant; 0=no damage to plant) (Echinochloa crus-galli) | IPOHE damage score (10=total damage to plant; 0=no damage to plant) (Ipomea hederaceae) | SETFA damage score (10=total damage to plant; 0=no damage to plant) (Setaria faberi) | SOLNI damage score (10=total damage to plant; 0=no damage to plant) (Solanum nigrum) |
| --- | --- | --- | --- | --- | --- |
| C=CCN1c2nccnc2C(OC(=O)SCC)=C(c2cc(Cl)ccc2C(F)(F)F)S1(=O)=O [Compound C119] | 3 | 5 | 3 | 3 | 6 |
| CCSC(=O)OC1=C(c2cc(C(F)(F)F)ccc2Cl)S(=O)(=O)N(C)c2nccnc21 [Compound C89] | 7 | 6 | 9 | 1 | 10 |
| CC(C)(C)C(=O)OC1=C(c2cc(I)ccc2Cl)S(=O)(=O)N(CC(F)F)c2nccnc21 [Compound C55] | 7 | 2 | 8 | 2 | 7 |
| CCN1c2nccnc2C(OC(=O)C(C)C)=C(c2ccccc2[N+](=O)[O-])S1(=O)=O [Compound C67] | 0 | 0 | 2 | 0 | 1 |
| CC(C)C(=O)OC1=C(c2ccc(C(F)(F)F)cc2C(F)(F)F)S(=O)(=O)N(CC(F)F)c2nccnc21 [Compound C127] | 8 | 4 | 8 | 2 | 10 |
| CC(C)(C)C(=O)OC1=C(c2ccc(I)cc2Cl)S(=O)(=O)N(CC(F)F)c2nccnc21 [Compound C141] | 7 | 2 | 7 | 0 | 8 |
| CCN1c2nccnc2C(O)=C(c2cc(C(F)(F)F)ccc2C(F)(F)F)S1(=O)=O [Compound D24] | 6 | 3 | 10 | 1 | 10 |
| O=S1(=O)C(c2cc(C(F)(F)F)ccc2C(F)(F)F)=C(O)c2nccnc2N1CC(F)F [Compound D22] | 10 | 7 | 10 | 6 | 10 |
| CCSC(=O)OC1=C(c2cccc(Cl)c2Cl)S(=O)(=O)N(CC(F)F)c2nccnc21 [Compound C101] | 4 | 5 | 8 | 2 | 10 |
| CC(C)C(=O)OC1=C(c2c(Cl)ccc(Cl)c2C(F)(F)F)S(=O)(=O)N(CC(F)F)c2nccnc21 [Compound C53] | 8 | 8 | 4 | 5 | 5 |
| CCSC(=O)OC1=C(c2c(C(F)(F)F)ccc(Cl)c2Cl)S(=O)(=O)N(CC(F)F)c2nccnc21 [Compound C135] | 8 | 7 | 8 | 10 | 10 |
| CSC(=O)OC1=C(c2ccc(C(F)(F)F)cc2C(F)(F)F)S(=O)(=O)N(CC(F)F)c2nccnc21 [Compound C131] | 9 | 4 | 9 | 2 | 10 |
| CC(C)C(=O)OC1=C(c2cc(C(F)(F)F)ccc2Br)S(=O)(=O)N(CC(F)F)c2nccnc21 [Compound C59] | 10 | 7 | 10 | 3 | 10 |
| CCN1c2nccnc2C(O)=C(c2ccccc2[N+](=O)[O-])S1(=O)=O [Compound D34] | 0 | 0 | 2 | 1 | 1 |
| CCOC(=O)c1ccc(C(F)(F)F)nc1C1=C(OC(=O)SC)c2nccnc2N(CCC(F)F)S1(=O)=O [Compound C139, 2-[1-(3,3-difluoro-propyl)-4-methylsulfanylcarbonyloxy-2,2-dioxo-1,2-dihydro-2-λ-6-thia-1,5,8-triaza-naphthalen-3-yl]-6-trifluoromethyl-nicotinic acid ethyl ester] | 0 | 0 | 1 | 3 | 0 |
| CCSC(=O)OC1=C(c2cc(C(F)(F)F)ccc2Br)S(=O)(=O)N(CC(F)F)c2nccnc21 [Compound C60] | 10 | 7 | 10 | 1 | 10 |
| CC(C)C(=O)OC1=C(c2ccccc2C(F)(F)F)S(=O)(=O)N(CCCl)c2nccnc21 [Compound C121] | 0 | 0 | 1 | 2 | 5 |
| Cc1ccc(C(F)(F)F)c(C2=C(OC(=O)C(C)C)c3nccnc3N(CC(F)F)S2(=O)=O)c1 [Compound C146] | 8 | 4 | 9 | 2 | 7 |
| C=C(C)CN1c2nccnc2C(OC(=O)C(C)(C)C)=C(c2cccc(Cl)c2Cl)S1(=O)=O [Compound C140] | 0 | 0 | 2 | 0 | 2 |
| O=S1(=O)C(c2c(Cl)cccc2C(F)(F)F)=C(O)c2c(ncc[n+]2[O-])N1CC(F)F [Compound E2] | 8 | 6 | 8 | 8 | 9 |
| CCN1c2nccnc2C(OC(=O)C(C)(C)C)=C(c2ccc(Cl)cc2C(F)(F)F)S1(=O)=O [Compound C15] | 9 | 7 | 8 | 2 | 9 |
| CC(C)C(=O)OC1=C(c2c(C(F)(F)F)cccc2C(F)(F)F)S(=O)(=O)N(CC(F)F)c2nccnc21 [Compound C79] | 9 | 7 | 9 | 6 | 9 |
| CC(C)C(=O)OC1=C(c2c(Cl)ccc(Cl)c2Cl)S(=O)(=O)N(C)c2nccnc21 [Compound C92] | 6 | 4 | 9 | 3 | 9 |
| CC(C)C(=O)OC1=C(c2ccccc2OC(F)(F)F)S(=O)(=O)N(CC(F)F)c2nccnc21 [Compound C22] | 10 | 7 | 9 | 4 | 10 |
| CCN1c2nccnc2C(OC(=O)C(C)C)=C(c2cc(I)ccc2Cl)S1(=O)=O [Compound C51] | 5 | 1 | 6 | 0 | 7 |
